Reference: patent US10377718B2, “Apelin receptor (APJ) agonists and uses thereof” (Research Triangle Institute, priority 2014, dated 2019)

These molecules were tested against T1, apelin receptor (APJ) (Homo sapiens, UniProt P35414) (assay: in vitro apelin agonist activity (methods of Giddings et al., Apelin-13 as positive control)). Conditions: not given.
T1 sequence (P35414 1-380): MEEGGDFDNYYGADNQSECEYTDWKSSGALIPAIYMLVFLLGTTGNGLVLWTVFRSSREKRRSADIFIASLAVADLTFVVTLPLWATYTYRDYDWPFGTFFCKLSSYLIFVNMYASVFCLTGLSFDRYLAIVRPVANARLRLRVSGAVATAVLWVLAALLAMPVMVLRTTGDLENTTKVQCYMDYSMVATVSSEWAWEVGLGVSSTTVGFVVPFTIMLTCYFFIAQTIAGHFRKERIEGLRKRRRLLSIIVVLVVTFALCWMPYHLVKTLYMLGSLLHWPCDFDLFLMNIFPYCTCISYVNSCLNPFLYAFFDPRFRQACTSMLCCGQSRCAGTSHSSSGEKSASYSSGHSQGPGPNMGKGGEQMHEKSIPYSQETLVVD
Assay type: cell-based
Excerpt: The compounds above were studied for their in vitro activity as apelin agonists using the methods described by Giddings et al. Giddings et al., 2010 Int J High Thro Screen. 1:39-47, the contents of which are hereby incorporated by reference in its entirety.

| SMILES | EC50 |
| --- | --- |
| COc1cccc(OC)c1-c1cc(C(=O)N[C@H](C(=O)O)C2CCCCC2)nn1CC(C)C [compound 169, (S)-2-Cyclohexyl-2-(5-(2,6-dimethoxyphenyl)-1-isobutyl-1H-pyrazole-3-carboxamido)acetic acid] | < 10 µM |
| COc1cccc(OC)c1-c1cc(C(=O)N[C@@H](CC(C)C)C(=O)O)nn1-c1ccc(F)cc1 [compound 34] | < 10 µM |
| COc1cccc(OC)c1-c1cc(C(=O)N[C@H](C(=O)NCC(=O)O)C2CCCCC2)nn1-c1ccc(F)cc1 [compound 70] | < 10 µM |
| COc1cccc(OC)c1-c1cc(C(=O)N[C@@H](CC2CCCCC2)C(=O)O)nn1CC(C)C [compound 204] | < 10 µM |

Same assay, conditions: apelin agonist activity, Giddings et al. method; read-out: agonist activity (EC50)

| EC50 | SMILES |
| --- | --- |
| < 10 µM | COC(=O)CNC(=O)[C@H](Cc1ccccc1)NC(=O)c1cc(-c2c(OC)cccc2OC)n(CC(C)C)n1 [compound 205] |
| < 10 µM | COC(=O)CN(C)C(=O)C[C@H](CC(C)C)NC(=O)c1cc(-c2c(OC)cccc2OC)n(CC(C)C)n1 [compound 218] |
| < 10 µM | COC(=O)CNC(=O)C[C@H](CC(C)C)NC(=O)c1cc(-c2c(OC)cccc2OC)n(CC(C)(C)C)n1 [compound 187] |
| < 10 µM | COC(=O)CNC(=O)[C@H](CC1CCCCC1)NC(=O)c1cc(-c2cc(OC)ccc2OC)n(CC(C)C)n1 [compound 217] |
| < 10 µM | COC(=O)CNC(=O)C[C@H](CCCC1CCCCC1)NC(=O)c1cc(-c2c(OC)cccc2OC)n(CC(C)C)n1 [compound 242] |
| < 10 µM | COCCNC(=O)C[C@H](CCN1CCCCC1)NC(=O)c1cc(-c2c(OC)cccc2OC)n(CC(C)C)n1 [compound 249] |
| < 10 µM | COc1cccc(OC)c1-c1cc(C(=O)N[C@H](CC(=O)NC2CCCC2)CC(C)C)nn1CC(C)C [compound 185] |
| < 10 µM | CCC(O)CNC(=O)C[C@H](CCN1CCCCC1)NC(=O)c1cc(-c2c(OC)cccc2OC)n(CC(C)C)n1 (stereo partly shown) [compound 245] |
| < 10 µM | COC(=O)CNC(=O)[C@H](CC1CCCCC1)NC(=O)c1cc(-c2c(OC)cccc2OC)n(CC(C)C)n1 [compound 198] |
| < 10 µM | CCCN(C)C(=O)C[C@H](CC(C)C)NC(=O)c1cc(-c2c(OC)cccc2OC)n(CC(C)C)n1 [compound 171] |
| < 10 µM | COC(=O)CNC(=O)C[C@H](CC(C)C)NC(=O)c1cc(-c2c(OC)cccc2OC)n(CC2CC2)n1 [compound 183] |
| < 10 µM | COC(=O)CNC(=O)C[C@H](CC(C)C)NC(=O)c1cc(-c2c(OC)cccc2OC)n(C2CCCC2)n1 [compound 184] |
| < 10 µM | COc1cccc(OC)c1-c1cc(C(=O)N[C@@H](CCN2CCCCC2)CC(=O)O)nn1CC(C)C [compound 251] |
| < 10 µM | COc1cccc(OC)c1-c1cc(C(=O)N[C@@H](CCN2CCCCC2)CC(=O)NC2CCC2)nn1CC(C)C [compound 247] |
| < 10 µM | COc1cccc(OC)c1-c1cc(C(=O)N[C@H](CC(=O)NCC(=O)O)CC(C)C)nn1CC(C)C [compound 174] |
| < 10 µM | CCOC(=O)CCNC(=O)[C@H](CC(C)C)NC(=O)c1cc(-c2c(OC)cccc2OC)n(CC(C)C)n1 [compound 191] |

More lines, now with the values behind:

| SMILES | EC50 |
| --- | --- |
| COC(=O)CNC(=O)C[C@H](CC(C)C)NC(=O)c1cc(-c2c(OC)cccc2OC)n(CC(C)C)n1 [compound 130, (S)-Methyl 2-(3-(5-(2,6-dimethoxyphenyl)-1-isobutyl-1H-pyrazole-3-carboxamido)-5-methylhexanamido)acetate] | < 10 µM |
| COc1cccc(OC)c1-c1cc(C(=O)N[C@@H](CC(=O)O)CC(C)C)nn1-c1ccc(F)cc1 [compound 67] | < 10 µM |
| COc1cccc(OC)c1-c1cc(C(=O)N[C@H](CC(=O)NC(C)C)CC(C)C)nn1CC(C)C [compound 162] | < 10 µM |
| COc1cccc(OC)c1-c1cc(C(=O)N[C@H](C(=O)O)C2CCCCC2)nn1-c1ccc(F)cc1 [compound 71, (S)-2-Cyclohexyl-2-(5-(2,6-dimethoxyphenyl)-1-(4-fluorophenyl)-1H-pyrazole-3-carboxamido)acetic acid] | < 10 µM |
| COc1cccc(OC)c1-c1cc(C(=O)N[C@H](CC(=O)NCC(=O)O)CC(C)C)nn1-c1ccc(F)cc1 [compound 77, (S)-2-(3-(5-(2,6-Dimethoxyphenyl)-1-(4-fluorophenyl)-1H-pyrazole-3-carboxamido)-5-methylhexanamido)acetic acid] | < 10 µM |
| COc1cccc(OC)c1-c1cc(C(=O)N[C@H](CC(=O)O)CC(C)C)nn1CC(C)C [compound 118] | < 10 µM |
| COc1cccc(OC)c1-c1cc(C(=O)N[C@H](CC(=O)O)CC(C)C)nn1CC1CCCCC1 [compound 95, (S)-3-(1-(Cyclohexylmethyl)-5-(2,6-dimethoxyphenyl)-1H-pyrazole-3-carboxamido)-5-methylhexanoic acid] | < 10 µM |
| COc1cccc(OC)c1-c1cc(C(=O)N[C@H](CC(=O)NCc2ncco2)CC(C)C)nn1CC(C)C [compound 140, (S)-5-(2,6-Dimethoxyphenyl)-1-isobutyl-N-(5-methyl-1-((oxazol-2-ylmethyl)amino)-1-oxohexan-3-yl)-1H-pyrazole-3-carboxamide] | < 10 µM |
| CCCCCCNC(=O)C[C@H](CC(C)C)NC(=O)c1cc(-c2c(OC)cccc2OC)n(CC(C)C)n1 [compound 154, (S)-5-(2,6-Dimethoxyphenyl)-N-(1-(hexylamino)-5-methyl-1-oxohexan-3-yl)-1-isobutyl-1H-pyrazole-3-carboxamide] | < 10 µM |
| COc1cccc(OCc2ccccc2)c1-c1cc(C(=O)N[C@H](CC(=O)NCc2ncco2)CC(C)C)nn1C1CCCCC1 [compound 134, 5-(2-(Benzyloxy)-6-methoxyphenyl)-1-cyclohexyl-N-((S)-5-methyl-1-((oxazol-2-ylmethyl)amino)-1-oxohexan-3-yl)-1H-pyrazole-3-carboxamide] | < 10 µM |
| COC(=O)COc1cccc(OC)c1-c1cc(C(=O)N[C@H](CC(=O)O)CC(C)C)nn1-c1ccc(F)cc1 [compound 86] | < 10 µM |
| COc1cccc(OCc2ccccc2)c1-c1cc(C(=O)N[C@H](CC(=O)O)CC(C)C)nn1C1CCCCC1 [compound 126, (3S)-3-(5-(2-(Benzyloxy)-6-methoxyphenyl)-1-cyclohexyl-1H-pyrazole-3-carboxamido)-5-methylhexanoic acid] | < 10 µM |
| CCCCCNC(=O)C[C@H](CC(C)C)NC(=O)c1cc(-c2c(OC)cccc2OC)n(CC(C)C)n1 [compound 156, (S)-5-(2,6-Dimethoxyphenyl)-1-isobutyl-N-(5-methyl-1-oxo-1-(pentylamino)hexan-3-yl)-1H-pyrazole-3-carboxamide] | < 10 µM |
| COc1cccc(OC)c1-c1cc(C(=O)N[C@H](CC(=O)O)CC(C)C)nn1-c1ccc(F)cc1 [compound 56, (S)-3-(5-(2,6-Dimethoxyphenyl)-1-(4-fluorophenyl)-1H-pyrazole-3-carboxamido)-5-methylhexanoic acid] | < 10 µM |
| COc1cccc(OCc2ccccc2)c1-c1cc(C(=O)N[C@H](CC(=O)NCC(=O)N(C)C)CC(C)C)nn1C1CCCCC1 [compound 136, 5-(2-(Benzyloxy)-6-methoxyphenyl)-1-cyclohexyl-N-((S)-1-((2-(dimethylamino)-2-oxoethyl)amino)-5-methyl-1-oxohexan-3-yl)-1H-pyrazole-3-carboxamide] | < 10 µM |
| CCCNC(=O)C[C@H](CC(C)C)NC(=O)c1cc(-c2c(OC)cccc2OC)n(CC(C)C)n1 [compound 157, (S)-5-(2,6-dimethoxyphenyl)-1-isobutyl-N-(5-methyl-1-oxo-1-(propylamino)hexan-3-yl)-1H-pyrazole-3-carboxamide] | < 10 µM |

Same assay, conditions: mean based on three runs; read-out: mean activity (EC50)

| EC50 | SMILES |
| --- | --- |
| 0.053 µM | COC(=O)CNC(=O)[C@H](CC1CCCCC1)NC(=O)c1cc(-c2c(OC)cccc2OC)n(CC(C)C)n1 [compound 198] |
